Reference: ChEMBL document CHEMBL4184250, “Structure-activity studies of a macrocyclic peptide inhibitor of histone lysine demethylase 4A” (Bioorg Med Chem, 2018)
Where a SMILES comes first, the peptide text is derived from it. Bridges are numbered along the chain shown (N, C = ends). [ ]: non-standard residue; d: D form. NMeI = CC[C@H](C)[C@H](NC)C(=O)O; NMeC = CN[C@@H](CS)C(=O)O

Columns and labels:
[1] = Drug uptake in human MCF7 cells assessed as cell area stained at 10 uM after 3 hrs by Hoechst 33342 staining based confocal microscopic analysis; format: ADME; conditions: mcf7, 3 h
[2] = target: T1, Lysine-specific demethylase 4C (Homo sapiens, UniProt Q9H3R0); experiment: Inhibition of KDM4C (unknown origin) expressed in Escherichia coli using biotinylated peptide as substrate pretreated for 15 mins followed by substrate addition by Alphascreen assay
T1 sequence (Q9H3R0 whole entry): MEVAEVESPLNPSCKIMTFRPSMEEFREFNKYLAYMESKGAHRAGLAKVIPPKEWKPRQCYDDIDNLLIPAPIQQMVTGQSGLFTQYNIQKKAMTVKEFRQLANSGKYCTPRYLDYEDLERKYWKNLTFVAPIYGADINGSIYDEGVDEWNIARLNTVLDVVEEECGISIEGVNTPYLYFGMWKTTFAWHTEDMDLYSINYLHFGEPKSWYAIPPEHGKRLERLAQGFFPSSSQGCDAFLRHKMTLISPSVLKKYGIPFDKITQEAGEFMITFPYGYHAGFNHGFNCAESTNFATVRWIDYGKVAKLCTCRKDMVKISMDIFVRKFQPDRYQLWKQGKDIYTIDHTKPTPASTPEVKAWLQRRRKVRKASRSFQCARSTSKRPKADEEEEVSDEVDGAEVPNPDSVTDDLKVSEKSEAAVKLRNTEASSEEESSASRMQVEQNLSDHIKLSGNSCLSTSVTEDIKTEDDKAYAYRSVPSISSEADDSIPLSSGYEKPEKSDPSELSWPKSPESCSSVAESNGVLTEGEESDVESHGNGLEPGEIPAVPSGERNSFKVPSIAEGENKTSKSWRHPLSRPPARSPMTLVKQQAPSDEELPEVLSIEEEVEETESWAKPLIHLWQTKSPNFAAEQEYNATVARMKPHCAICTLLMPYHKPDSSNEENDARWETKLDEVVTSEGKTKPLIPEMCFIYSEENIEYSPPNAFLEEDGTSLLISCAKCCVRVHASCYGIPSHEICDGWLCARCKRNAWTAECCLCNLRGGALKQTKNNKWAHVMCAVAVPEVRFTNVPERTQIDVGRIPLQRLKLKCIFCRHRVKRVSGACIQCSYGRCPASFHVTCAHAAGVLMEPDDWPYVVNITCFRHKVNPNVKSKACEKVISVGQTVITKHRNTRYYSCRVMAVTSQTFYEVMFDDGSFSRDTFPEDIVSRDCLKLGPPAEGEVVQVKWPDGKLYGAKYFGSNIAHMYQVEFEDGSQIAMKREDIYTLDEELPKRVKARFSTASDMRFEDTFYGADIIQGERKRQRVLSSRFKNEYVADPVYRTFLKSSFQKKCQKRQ

[3] = target: T2, Lysine-specific demethylase 4A (Homo sapiens, UniProt O75164); experiment: Inhibition of KDM4A (unknown origin) expressed in Escherichia coli using biotinylated peptide as substrate pretreated for 15 mins followed by substrate addition by Alphascreen assay
T2 sequence (O75164 whole entry): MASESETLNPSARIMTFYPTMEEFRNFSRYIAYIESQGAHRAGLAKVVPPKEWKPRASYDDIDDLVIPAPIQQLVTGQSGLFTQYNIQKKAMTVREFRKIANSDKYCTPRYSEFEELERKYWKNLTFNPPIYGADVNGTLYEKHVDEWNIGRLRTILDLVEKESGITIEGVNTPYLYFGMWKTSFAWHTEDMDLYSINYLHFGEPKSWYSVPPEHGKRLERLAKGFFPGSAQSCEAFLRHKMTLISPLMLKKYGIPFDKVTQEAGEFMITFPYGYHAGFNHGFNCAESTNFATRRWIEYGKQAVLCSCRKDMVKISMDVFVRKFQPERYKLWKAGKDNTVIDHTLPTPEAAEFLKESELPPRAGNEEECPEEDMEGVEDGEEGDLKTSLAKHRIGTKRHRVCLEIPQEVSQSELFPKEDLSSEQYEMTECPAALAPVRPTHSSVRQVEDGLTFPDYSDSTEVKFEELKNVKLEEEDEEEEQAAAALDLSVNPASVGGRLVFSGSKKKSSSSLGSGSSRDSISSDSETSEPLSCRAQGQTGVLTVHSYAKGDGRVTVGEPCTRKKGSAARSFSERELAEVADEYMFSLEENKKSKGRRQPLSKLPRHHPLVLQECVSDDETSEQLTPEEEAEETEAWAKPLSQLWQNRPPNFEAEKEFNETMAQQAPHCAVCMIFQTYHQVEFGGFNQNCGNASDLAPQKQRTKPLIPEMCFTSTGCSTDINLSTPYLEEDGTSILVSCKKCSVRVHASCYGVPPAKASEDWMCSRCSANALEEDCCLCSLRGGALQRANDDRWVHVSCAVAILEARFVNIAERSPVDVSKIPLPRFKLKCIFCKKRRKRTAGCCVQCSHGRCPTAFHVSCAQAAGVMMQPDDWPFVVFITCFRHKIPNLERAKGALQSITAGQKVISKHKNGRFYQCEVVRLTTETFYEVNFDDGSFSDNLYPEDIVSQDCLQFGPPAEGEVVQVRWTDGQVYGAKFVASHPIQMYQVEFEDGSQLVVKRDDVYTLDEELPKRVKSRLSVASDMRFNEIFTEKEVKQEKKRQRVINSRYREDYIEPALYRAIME

[4] = target: T2, Lysine-specific demethylase 4A; experiment: Binding affinity to biotinylated-KDM4A (unknown origin) at 300 nM by bio-layer interferometric method; conditions: read-out: Kd(app)
[5] = target: T2, Lysine-specific demethylase 4A; experiment: Inhibition of full length FLAG-tagged KDM4A (unknown origin) expressed in human HeLa cells assessed as increase in H3K9me3 levels after 24 hrs by DAPI staining based immunofluorescence assay; format: cell-based
[6] = Drug localization in lysosomes of human MCF7 cells at 10 uM after 3 hrs by Lysotracker red DND-99 staining based confocal microscopic analysis; format: ADME, subcellular, Lysosome; conditions: mcf7, 3 h

SMILES	Drug uptake [1]	IC50 [2] [nM]	IC50 [3] [nM]	Kd [4] [nM]	EC50 ([5]; hela) [nM]	Drug uptake [6]	EC50 [5] [nM]
CC[C@H](C)[C@@H]1NC(=O)[C@H](Cc2c[nH]c3ccccc23)NC(=O)CNC(=O)[C@H](CO)NC(=O)[C@H](CCCNC(=N)N)NC(=O)[C@H](C(C)C)NC(=O)[C@H](C(C)C)NC(=O)[C@H](CCCNC(=N)N)NC(=O)[C@H]([C@@H](C)CC)NC(=O)[C@@H](Cc2ccc(O)cc2)NC(=O)CSC[C@@H](C(N)=O)NC(=O)[C@H](Cc2c[nH]c3ccccc23)NC1=O	2.9%	22	43	3.7	–	–	–
CC[C@H](C)[C@@H]1NC(=O)[C@H](CCCNC(=N)N)NC(=O)[C@H]([C@@H](C)CC)NC(=O)[C@@H](Cc2ccc(O)cc2)NC(=O)CSC[C@@H](C(N)=O)NC(=O)[C@H](Cc2c[nH]c3ccccc23)NC(=O)[C@H](CC(C)C)NC(=O)[C@H](Cc2c[nH]c3ccccc23)NC(=O)[C@@H](C)NC(=O)[C@H](CO)NC(=O)[C@H](CCCNC(=N)N)NC(=O)[C@H](CCCNC(=N)N)NC1=O	92.7%	38	15	3.1	> 50000	–	–
CC[C@H](C)[C@@H]1NC(=O)[C@H](CCCNC(=N)N)NC(=O)[C@@H]2CCCN2C(=O)[C@@H](Cc2ccc(O)cc2)NC(=O)CSC[C@@H](C(N)=O)NC(=O)[C@H](Cc2c[nH]c3ccccc23)NC(=O)[C@H](CCCNC(=N)N)NC(=O)[C@H]([C@@H](C)CC)NC(=O)[C@@H](C)NC(=O)[C@H](CO)NC(=O)[C@H](CCCNC(=N)N)NC(=O)[C@H](CCCNC(=N)N)NC1=O	97.1%	173	208	14	> 50000	–	–
N=C(N)NCCC[C@@H]1NC(=O)CNC(=O)[C@H](Cc2ccc(O)cc2)NC(=O)CSC[C@@H](C(N)=O)NC(=O)[C@H](CCCNC(=N)N)NC(=O)[C@H](CCCNC(=N)N)NC(=O)[C@H](CCCNC(=N)N)NC(=O)[C@H](CCC(N)=O)NC(=O)[C@H](CCCNC(=N)N)NC(=O)[C@H](CCCCN)NC(=O)[C@H](CCCCN)NC(=O)[C@H](CCCCN)NC1=O ({CH2CO}-YGRKKKRQRRRC-NH2; thioether N-12)	Active	–	–	–	–	Active	–
CC[C@H](C)[C@@H]1NC(=O)[C@H](CCCNC(=N)N)NC(=O)[C@H]([C@@H](C)CC)NC(=O)[C@H](Cc2ccc(O)cc2)NC(=O)CSC[C@@H](C(N)=O)N(C)C(=O)[C@H](Cc2c[nH]c3ccccc23)NC(=O)[C@H](CC(C)C)NC(=O)[C@H](Cc2c[nH]c3ccccc23)NC(=O)CNC(=O)[C@H](CO)NC(=O)[C@H](CCCNC(=N)N)NC(=O)[C@H](CCCNC(=N)N)NC1=O ({CH2CO}-YIRIRRSGWLW[NMeC]-NH2; thioether N-12)	18%	53	34	8.3	–	–	> 50000
CC[C@H](C)[C@@H]1NC(=O)[C@H](CCCNC(=N)N)NC(=O)[C@H]([C@@H](C)CC)NC(=O)[C@H](Cc2ccc(O)cc2)NC(=O)CSC[C@@H](C(N)=O)NC(=O)[C@H](Cc2c[nH]c3ccccc23)NC(=O)[C@H](C(C)C)NC(=O)[C@H](Cc2c[nH]c3ccccc23)NC(=O)CNC(=O)[C@H](CO)NC(=O)[C@H](CCCNC(=N)N)NC(=O)[C@H](CO)NC1=O ({CH2CO}-YIRISRSGWVWC-NH2; thioether N-12)	12.1%	23	31	16	–	–	–
CC[C@H](C)[C@@H]1NC(=O)[C@H](CC(C)C)NC(=O)[C@H](Cc2ccc(O)cc2)NC(=O)CSC[C@@H](C(N)=O)NC(=O)[C@H](Cc2c[nH]c3ccccc23)NC(=O)[C@H](C(C)C)NC(=O)[C@H](CC(C)C)NC(=O)CNC(=O)[C@H](CO)NC(=O)[C@H](CCCNC(=N)N)NC(=O)[C@H](CCCNC(=N)N)NC(=O)[C@H](C(C)C)NC1=O ({CH2CO}-YLIVRRSGLVWC-NH2; thioether N-12)	3.4%	151	81	173	–	–	–
CC[C@H](C)[C@@H]1NC(=O)[C@H](CC(C)C)NC(=O)CNC(=O)[C@H](CO)NC(=O)[C@H](CCCNC(=N)N)NC(=O)[C@H](C(C)C)NC(=O)[C@H](C(C)C)NC(=O)[C@H](CCCCN)NC(=O)[C@@H]2CCCN2C(=O)[C@H](Cc2ccc(O)cc2)NC(=O)CSC[C@@H](C(N)=O)NC(=O)[C@H](Cc2c[nH]c3ccccc23)NC1=O ({CH2CO}-YPKVVRSGLIWC-NH2; thioether N-12)	1.7%	154	82	49	–	–	–
CC[C@H](C)[C@@H]1NC(=O)CNC(=O)[C@H](CO)NC(=O)[C@H](CCCNC(=N)N)NC(=O)[C@H](CCCNC(=N)N)NC(=O)[C@H]([C@@H](C)CC)NC(=O)[C@H](CCCNC(=N)N)NC(=O)[C@@H]2CCCN2C(=O)[C@H](Cc2ccc(O)cc2)NC(=O)CSC[C@@H](C(N)=O)N(C)C(=O)[C@H](Cc2c[nH]c3ccccc23)NC(=O)[C@H](CCCNC(=N)N)NC1=O ({CH2CO}-YPRIRRSGIRW[NMeC]-NH2; thioether N-12)	28.2%	164	373	9	–	–	> 50000
CC[C@H](C)[C@@H]1NC(=O)[C@H](Cc2c[nH]c3ccccc23)NC(=O)CNC(=O)[C@H](CO)NC(=O)[C@H](CCCNC(=N)N)NC(=O)[C@H](CCCCN)NC(=O)[C@H]([C@@H](C)CC)NC(=O)[C@H](CO)NC(=O)[C@@H]2CCCN2C(=O)[C@H](Cc2ccc(O)cc2)NC(=O)CSC[C@@H](C(N)=O)NC(=O)[C@H](Cc2c[nH]c3ccccc23)NC1=O ({CH2CO}-YPSIKRSGWIWC-NH2; thioether N-12)	0.8%	55	41	21	–	–	–
CC[C@H](C)[C@@H]1NC(=O)[C@H](CCCNC(=N)N)NC(=O)[C@H]([C@@H](C)CC)N(C)C(=O)[C@H](Cc2ccc(O)cc2)NC(=O)CSC[C@@H](C(N)=O)NC(=O)[C@H](Cc2c[nH]c3ccccc23)NC(=O)[C@H](CC(C)C)NC(=O)[C@H](Cc2c[nH]c3ccccc23)NC(=O)CNC(=O)[C@H](CO)NC(=O)[C@H](CCCNC(=N)N)NC(=O)[C@H](CCCNC(=N)N)NC1=O ({CH2CO}-Y[NMeI]RIRRSGWLWC-NH2; thioether N-12)	55.6%	12	11	14	–	–	> 50000
